Counter-ions that a name gives are not always drawn. Like-named read-outs stand apart in the source and are kept apart here.
Key:
[1] = molecular target: Glucocorticoid Receptor (GR) (Homo sapiens (Human), UniProt P04150); assay: LanthaScreen TR-FRET GR Competitive Binding Assay (cell free)
[2] = test system: GR activation in 293/PRLR/GRE-Luc cells (HEK293/9xUAS-Luc2P/pBind-GR/PRLR-HA high cells); assay: GR co-activator luciferase reporter cell based assay in 293/PRLR/GRE-Luc cells; set-up: species or system human; details: for Emax: HEK293, read-out: Activation (fold activation relative to Budesonide) in HEK293/9xUAS-Luc2P/pBind-GR/PRLR-HA high cells; for HEK293/9xUAS-Luc2P/pBind-GR/PRLR-HA high cells activation relative to Budesonide: fold activation vs Budesonide
Excerpt: Bioassays described herein were used to assess the efficacy of free steroids and anti-PRLR-ncADCs. In one example, the bioassay assessed the activity of steroids, after internalization of a site-specific anti-PRLR-GC steroid ADC into cells, to bind to pBIND-GR and subsequent luciferase reporter activation. […] Then such stable cell line was further transfected with a chimeric receptor consisting of a GR ligand binding domain fused to the yeast Gal4 DNA binding domain (pBind-GR, Promega Cat #E1581), and a Gal4 upstream activator sequence (9×Gal4UAS-Luc2P) that drives luciferase gene expression.
(§1) For this assay, 20,000 cells were seeded in 96-well plates in media containing DMEM supplemented with 10% FBS and pencillin/streptomycin (complete media) and grown overnight at 37° C. in 5% CO2. […] Luciferase activity was determined by addition of OneGlo™ reagent (Promega, Cat #E6130) and relative light units (RLUs) were measured on a Victor luminometer (Perkin Elmer). The EC50 values were determined from a four-parameter logistic equation over a 10 point response curve using GraphPad Prism.
as §1, with “One-Glo™” for “OneGlo™”, “10-point” for “10 point”, “Prism. […] Minimal activation in this assay is defined as less than 10% of the maximal activation measured with the free payload.” for “Prism.”

[3] = Homo sapiens, HEK293, 72 hours of incubation, read-out: HEK293/9xUAS-Luc2P/pBind-GR/PRLR-HA high cells EC50
[4] = Homo sapiens, 72 hours of incubation
[5] = Homo sapiens, HEK293, read-out: HEK293/9xUAS-Luc2P/pBind-GR/PRLR-HA high cells EC50

Chain of Glucocorticoid Receptor (GR) (P04150 524-758): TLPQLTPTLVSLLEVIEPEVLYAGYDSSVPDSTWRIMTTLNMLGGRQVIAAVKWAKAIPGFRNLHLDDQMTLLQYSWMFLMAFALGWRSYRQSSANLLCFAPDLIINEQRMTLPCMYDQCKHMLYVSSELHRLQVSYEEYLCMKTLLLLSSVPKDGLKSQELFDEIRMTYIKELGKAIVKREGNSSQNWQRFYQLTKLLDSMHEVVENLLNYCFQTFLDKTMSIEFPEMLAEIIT

| Compound | IC50 [1] [nM] | EC50 [2, 3] [nM] | Emax [2, 4] [%] | other results |
| --- | --- | --- | --- | --- |
| CCCC1O[C@@H]2C[C@H]3[C@@H]4C[C@H](F)C5=CC(=O)C=C[C@]5(C)[C@@]4(F)[C@@H](O)C[C@]3(C)[C@]2(C(=O)CN(C)Cc2ccc(OC)cc2)O1 (stereo partly drawn) [11-20 R/S, (1S,2S,4R,8S,9S,11S,12R,13S,19S)-12,19-Difluoro-11-hydroxy-8-(2-{[(4-methoxyphenyl)methyl](methyl)amino}acetyl)-9,13-dimethyl-6-propyl-5,7-dioxapentacyclo[10.8.0.0^2,90.0^4,80.0^13,18]icosa-14,17-dien-16-one; trifluoroacetic acid] | < 10 | > 100 | – | Activation (fold activation relative to Budesonide) in HEK293/9xUAS-Luc2P/pBind-GR/PRLR-HA high cells ([2]; 72 hours of incubation): no activation |
| CCC[C@@H]1O[C@@H]2C[C@H]3[C@@H]4CCC5=CC(=O)C=C[C@]5(C)[C@H]4[C@@H](O)C[C@]3(C)[C@]2(C(=O)COc2ccc(N)cc2F)O1 [11-7 R, (1S,2S,4R,8S,9S,11S,12S,13R)-8-[2-(4-Amino-3-fluorophenoxy)acetyl]-11-hydroxyl-9,13-dimethyl-6-propyl-5,7-dioxapentacyclo[10.8.0.0^2,90.0^4,80.0^13,18]icosa-14,17-dien-16-one] | 10 to 100 | 10 to 100 | > 75 | – |
| CCC[C@@H]1O[C@@H]2C[C@H]3[C@@H]4CCC5=CC(=O)C=C[C@]5(C)[C@H]4[C@@H](O)C[C@]3(C)[C@]2(C(=O)COc2ccc(NC)cc2)O1 [11-8 R, (1S,2S,4R,6R,8S,9S,11S,12S,13R)-11-Hydroxyl-9,13-dimethyl-8-{2-[4-(methylamino)phenoxy]acetyl}-6-propyl-5,7-dioxapentacyclo-[10.8.0.0^2,90.0^4,80.0^13,18]icosa-, 14,17-dien-16-one] | 10 to 100 | < 10 | > 75 | – |
| C[C@@H]1C[C@H]2[C@@H]3CCC4=CC(=O)C=C[C@]4(C)[C@@]3(F)[C@@H](O)C[C@]2(C)[C@@]1(O)C(=O)CO [compound 1c, dexamethasone, reference compound] | – | – | – | EC50 ([2]; 293/PRLR/GRE-Luc cells, 72 hours, ADCs with or without cyclodextrin linkers, read-out: EC50): 8.4 nM; Maximal Activation ([2]; 293/PRLR/GRE-Luc cells, 72 hours, relative to free payload): Full (Full activation in this assay is defined between 90 and 100% of the maximal activation measured with the free payload) |
| CCC[C@@H]1O[C@@H]2C[C@H]3[C@@H]4C[C@H](F)C5=CC(=O)C=C[C@]5(C)[C@@]4(F)[C@@H](O)C[C@]3(C)[C@]2(C(=O)COc2ccc(N)cc2)O1 [Compound R-6-I] | < 10 | – | – | EC50 [2, 5]: < 10 nM; HEK293/9xUAS-Luc2P/pBind-GR/PRLR-HA high cells activation relative to Budesonide [2]: Full |
| C[C@]12C=CC(=O)C=C1CC[C@@H]1[C@@H]2[C@@H](O)C[C@@]2(C)[C@H]1C[C@H]1O[C@@H](c3ccc(N)cc3)O[C@]12C(=O)CO [7-1 R, (1S,2S,4R,6R,8S,9S,11S,12S,13R)-6-(4-Aminophenyl)-11-hydroxy-8-(2-hydroxyacetyl)-9,13-dimethyl-5,7-dioxapentacyclo[10.8.0.0^2,90.0^4,80.0^13,18]icosa-14,17-dien-16-one] | 10 to 100 | < 10 | > 75 | – |
| CCCC1O[C@@H]2C[C@H]3[C@@H]4C[C@H](F)C5=CC(=O)C=C[C@]5(C)[C@@]4(F)[C@@H](O)C[C@]3(C)[C@]2(C(=O)COc2ccc(CN)cc2)O1 (stereo partly drawn) [11-15 R/S, (1S,2S,4R,8S,9S,11S,12R,13S,19S)-8-{2-[4-(Aminomethyl)phenoxy]acetyl}-12,19-difluoro-11-hydroxy-9,13-dimethyl-6-propyl-5,7-dioxapentacyclo[10.8.0.0^2,90.0^4,80.0^13,18]icosa-14,17-dien-16-one] | < 10 | 10 to 100 | 20 to 75 | – |
| CCCC1O[C@@H]2C[C@H]3[C@@H]4CCC5=CC(=O)C=C[C@]5(C)[C@H]4[C@@H](O)C[C@]3(C)[C@]2(C(=O)CN)O1 (stereo partly drawn) [11-1 R/S, (1S,2S,4R,8S,9S,11S,12S,13R)-8-(2-Aminoacetyl)-11-hydroxy-9,13-dimethyl-6-propyl-5,7-dioxapentacyclo[10.8.0.0^2,9. 0^4,80.0^13,18]icosa-14,17-dien-16-one] | 10 to 100 | < 10 | > 75 | – |
| CCCC1O[C@@H]2C[C@H]3[C@@H]4C[C@H](F)C5=CC(=O)C=C[C@]5(C)[C@@]4(F)[C@@H](O)C[C@]3(C)[C@]2(C(=O)COc2ccc(N)c(F)c2)O1 (stereo partly drawn) [11-14 R/S, (1S,2S,4R,8S,9S,11S,12R,13S,19S)-8-[2-(4-Amino-3-fluorophenoxy)acetyl]-12,19-difluoro-11-hydroxy-9,13-dimethyl-6-propyl-5,7-dioxapentacyclo[10.8.0.0^2,9.0^4,80.0^13,18]icosa-14,17-dien-16-one] | < 10 | < 10 | > 75 | – |
| CCCC1O[C@@H]2C[C@H]3[C@@H]4C[C@H](F)C5=CC(=O)C=C[C@]5(C)[C@@]4(F)[C@@H](O)C[C@]3(C)[C@]2(C(=O)COc2ccc(N)c(OC)c2)O1 (stereo partly drawn) [Compound 6-II, (1S,2S,4R,8S,9S,11S,12R,13S,19S)-8-[2-(4-Amino-3-methoxyphenoxy)acetyl]-12,19-difluoro-11-hydroxy-9,13-dimethyl-6-propyl-5,7-dioxapentacyclo[10.8.0.0^2,90.0^4,80.0^13,18]icosa-14,17-dien-16-one trifluoroacetate] | < 10 | – | – | EC50 [2, 5]: < 10 nM; HEK293/9xUAS-Luc2P/pBind-GR/PRLR-HA high cells activation relative to Budesonide [2]: Full |
| CC(C)C(=O)OCC(=O)[C@@]12O[C@H](c3ccc(N)cc3)O[C@@H]1C[C@H]1[C@@H]3CCC4=CC(=O)C=C[C@]4(C)[C@H]3[C@@H](O)C[C@@]12C [8-1 R, 2[(1S,2S,4R,8S,9S,11S,12S,13R)-6-(4-Aminophenyl)-11-hydroxy-9,13-dimethyl-16-oxo-5,7-dioxapentacyclo[10.8.0.0^2,90.0^4,80.0^13,18]icosa-14,17-dien-8-yl]-2-oxoethyl 2-methylpropanoate] | – | 10 to 100 | – | Activation (fold activation relative to Budesonide) in HEK293/9xUAS-Luc2P/pBind-GR/PRLR-HA high cells ([2]; 72 hours of incubation): full activation |
| CCCC1O[C@@H]2C[C@H]3[C@@H]4C[C@H](F)C5=CC(=O)C=C[C@]5(C)[C@@]4(F)[C@@H](O)C[C@]3(C)[C@]2(C(=O)COc2ccc(N)c(F)c2)O1 (stereo partly drawn) [Compound 6-III, (1S,2S,4R,8S,9S,11S,12R,13S,19S)-8-[2-(4-Amino-3-fluorophenoxy)acetyl]-12,19-difluoro-11-hydroxy-9,13-dimethyl-6-propyl-5,7-dioxapentacyclo[10.8.0.0^2,90.0^4,8.0^13,18]icosa-14,17-dien-16-one] | – | – | – | EC50 [2, 5]: < 10 nM |
| CCCC1O[C@@H]2C[C@H]3[C@@H]4C[C@H](F)C5=CC(=O)C=C[C@]5(C)[C@@]4(F)[C@@H](O)C[C@]3(C)[C@]2(C(=O)CNc2ccc(N)cc2)O1 (stereo partly drawn) [Compound 5-I, (1S,2S,4R,8S,9S,11S,12R,13S,19S)-8-{2-[(4-Aminophenyl)amino]acetyl}-12,19-difluoro-11-hydroxy-9,13-dimethyl-6-propyl-5,7-dioxapentacyclo[10.8.0.0^2,90.0^4,80.0^13,18]icosa-14,17-dien-16-one Trifluoroacetate] | – | – | – | EC50 [2, 5]: < 10 nM; HEK293/9xUAS-Luc2P/pBind-GR/PRLR-HA high cells activation relative to Budesonide [2]: Full |
| CC(=O)OCC(=O)[C@@]1(OC(C)=O)[C@@H](C)C[C@H]2[C@@H]3C[C@H](F)C4=CC(=O)C=C[C@]4(C)[C@@]3(F)[C@@H](O)C[C@@]21C [Diflorasone, diflorasone, reference compound] | – | < 10 | > 75 | – |
| (6S,8S,9S,10R,11S,13S,14S,17R)-17-(2-(4-Aminophenoxy)acetyl)-11,17-dihydroxy-6,10,13-trimethyl-6,7,8,9,10,11,12,13,14,15,16,17-dodecahydro-3H-cyclopenta[a]phenanthren-3-one [Compound 6-VI] | – | – | – | HEK293/9xUAS-Luc2P/pBind-GR/PRLR-HA high cells activation relative to Budesonide [2]: Full; EC50 ([2]; read-out: HEK293/9xUAS-Luc2P/pBind-GR/PRLR-HA high cells EC50): < 10 nM |
| C[C@]12C=CC(=O)C=C1CC[C@@H]1[C@@H]2[C@@H](O)C[C@@]2(C)[C@H]1C[C@H]1O[C@@H](c3ccc(N)cc3)O[C@]12C(=O)CO [Compound 7-1R] | – | – | – | GRE-Luc activation ([2]; 293/PRLR/GRE-Luc cells, 72 hours): full GRE-Luc activation; EC50 ([2]; 293/PRLR/GRE-Luc cells, 72 hours, read-out: EC50 of GRE-Luc activation): 10 to 100 nM |
